Results from US9028845B2, “Chimeric immunomodulatory compounds and methods of using the same-IV” (Dynavax Technologies Corporation, priority 2001, dated 2015).

Test system: human PBMCs
Experiment: Human PBMC cytokine response assay (IFN-γ and IFN-α in cell-free medium by ELISA), with or without cPLGA;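 for IFN-α (pg/ml) mean: 20 µg/mL compound for 24 hours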;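 for IFN-γ (pg/ml) mean: 20 µg/mL compound for 24 hours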
Format: cell-based
Conditions: for IFN-α mean / IFN-γ mean: mean of donors; for IFN-α (pg/ml) mean / IFN-γ (pg/ml) mean: mean of donors 110, 112, 119, 120; for IFN-a mean / IFN-g mean: mean of donors 28250-28253
[1] = mean of donors 28185-28188, Table 15
[2] = Table 25, donor 28250, polynucleotides/spacers at amounts equivalent to the CIC, spacers alone 9 uM

## 5′-TCGTCGT-3′-HEG-5′-TCGTCGT-3′-HEG-5′-TCGTCGT-3′ [Compound C-42]
Table 10, donor 28042
  IFN-α: 0 pg/mL
  IFN-γ: 198 pg/mL
Table 10, donor 28043
  IFN-α: 29 pg/mL
  IFN-γ: 1067 pg/mL
Table 10, donor 28044
  IFN-α: 24 pg/mL
  IFN-γ: 4000 pg/mL
Table 10, donor 28045
  IFN-α: 0 pg/mL
  IFN-γ: 37 pg/mL
Table 10
  IFN-α mean: 13 pg/mL
  IFN-γ mean: 1326 pg/mL
Donor 110, Table 14
  IFN-α: 250 pg/mL
  IFN-γ: 1508 pg/mL
Donor 112, Table 14
  IFN-α: 26 pg/mL
  IFN-γ: 204 pg/mL
Donor 119, Table 14
  IFN-α: 156 pg/mL
  IFN-γ: 56 pg/mL
Donor 120, Table 14
  IFN-α: 36 pg/mL
  IFN-γ: 56 pg/mL
Table 14
  IFN-α (pg/ml) mean: 117 pg/mL
  IFN-γ (pg/ml) mean: 456 pg/mL

## 5′-TCGTCGT-3′-HEG-5′-TGTCGTT-3′-HEG-5′-TGTCGTT-3′ [Compound C-47]
Table 10, donor 28042
  IFN-α: 20 pg/mL
  IFN-γ: 112 pg/mL
Table 10, donor 28043
  IFN-α: 0 pg/mL
  IFN-γ: 537 pg/mL
Table 10, donor 28044
  IFN-α: 0 pg/mL
  IFN-γ: 142 pg/mL
Table 10, donor 28045
  IFN-α: 0 pg/mL
  IFN-γ: 17 pg/mL
Table 10
  IFN-α mean: 5 pg/mL
  IFN-γ mean: 202 pg/mL

## 5′-TCGTTTT-3′-HEG-5′-TCGTTTT-3′-HEG-5′-TCGTTTT-3′ [Compound C-41]
Table 10, donor 28042
  IFN-α: 0 pg/mL
  IFN-γ: 174 pg/mL
Table 10, donor 28043
  IFN-α: 3 pg/mL
  IFN-γ: 1075 pg/mL
Table 10, donor 28044
  IFN-α: 23 pg/mL
  IFN-γ: 841 pg/mL
Table 10, donor 28045
  IFN-α: 0 pg/mL
  IFN-γ: 45 pg/mL
Table 10
  IFN-α mean: 7 pg/mL
  IFN-γ mean: 534 pg/mL
Donor 110, Table 14
  IFN-α: 58 pg/mL
  IFN-γ: 512 pg/mL
Donor 112, Table 14
  IFN-α: 2 pg/mL
  IFN-γ: 100 pg/mL
Donor 119, Table 14
  IFN-α: 182 pg/mL
  IFN-γ: 32 pg/mL
Donor 120, Table 14
  IFN-α: 6 pg/mL
  IFN-γ: 32 pg/mL
Table 14
  IFN-α (pg/ml) mean: 62 pg/mL
  IFN-γ (pg/ml) mean: 169 pg/mL

## 5′-TGACTGTGA-3′-HEG-5′-ACGTTCG-3′-HEG-5′-AGATGAT-3′ [Compound C-53]
Table 11, donor 28042
  IFN-α: 0 pg/mL
  IFN-γ: 39 pg/mL
Table 11, donor 28043
  IFN-α: 0 pg/mL
  IFN-γ: 27 pg/mL
Table 11, donor 28044
  IFN-α: 0 pg/mL
  IFN-γ: 38 pg/mL
Table 11, donor 28045
  IFN-α: 5 pg/mL
  IFN-γ: 26 pg/mL
Table 11
  IFN-α mean: 1 pg/mL
  IFN-γ mean: 32 pg/mL

## 5′-TGACTGTGAAGGTTAGAGATGA-3′ (SEQ ID NO: 136) (listed as DNA, chemistry not fully specified) [Compound P-8, reference compound]
Table 13, donor 28156
  IFN-α: 16 pg/mL
  IFN-γ: 255 pg/mL
Table 13, donor 28157
  IFN-α: 9 pg/mL
  IFN-γ: 20 pg/mL
Table 13, donor 28158
  IFN-α: 24 pg/mL
  IFN-γ: 31 pg/mL
Table 13, donor 28159
  IFN-α: 8 pg/mL
  IFN-γ: 31 pg/mL
Table 13
  IFN-α mean: 14 pg/mL
  IFN-γ mean: 84 pg/mL

## 5′-TGCTGCA-3′-C3-5′-AGCTTGC-3′-C3-5′-AGATGAT-3′ (No CG) [Compound C-86]
Donor 28185, Table 15
  IFN-a: 7 pg/mL
  IFN-g: 1 pg/mL
Donor 28186, Table 15
  IFN-a: 4 pg/mL
  IFN-g: 4 pg/mL
Donor 28187, Table 15
  IFN-a: 4 pg/mL
  IFN-g: 30 pg/mL
Donor 28188, Table 15
  IFN-a: 31 pg/mL
  IFN-g: 5 pg/mL
[1]
  IFN-a (pg/ml) mean: 11 pg/mL
  IFN-g (pg/ml) mean: 10 pg/mL
Mean ×2, Table 15
  IFN-a (pg/ml) ×2: 22 pg/mL
Mean ×4, Table 15
  IFN-g (pg/ml) ×4: 40 pg/mL

## 5′-TTCGTTT-3′-HEG-5′-TTCGTTT-3′-HEG-5′-TTCGTTT-3′ [Compound C-46]
Table 10, donor 28042
  IFN-α: 24 pg/mL
  IFN-γ: 399 pg/mL
Table 10, donor 28043
  IFN-α: 73 pg/mL
  IFN-γ: 814 pg/mL
Table 10, donor 28044
  IFN-α: 26 pg/mL
  IFN-γ: 480 pg/mL
Table 10, donor 28045
  IFN-α: 3 pg/mL
  IFN-γ: 63 pg/mL
Table 10
  IFN-α mean: 31 pg/mL
  IFN-γ mean: 439 pg/mL
Donor 110, Table 14
  IFN-α: 58 pg/mL
  IFN-γ: 1224 pg/mL
Donor 112, Table 14
  IFN-α: 2 pg/mL
  IFN-γ: 400 pg/mL
Donor 119, Table 14
  IFN-α: 208 pg/mL
  IFN-γ: 68 pg/mL
Donor 120, Table 14
  IFN-α: 48 pg/mL
  IFN-γ: 36 pg/mL
Table 14
  IFN-α (pg/ml) mean: 79 pg/mL
  IFN-γ (pg/ml) mean: 432 pg/mL
Used alone (no cPLGA)
  immunomodulatory activity (IFN-γ / IFN-α secretion), in words: more active than other CG-containing CICs

## OCC(O)CO [Glycerol]
Table 25, donor 28250
  IFN-a: 16 pg/mL
[2]
  IFN-g: 16 pg/mL
Table 25, donor 28251
  IFN-a: 16 pg/mL
  IFN-g: 12 pg/mL
Table 25, donor 28252
  IFN-a: 16 pg/mL
  IFN-g: 2 pg/mL
Table 25, donor 28253
  IFN-a: 16 pg/mL
  IFN-g: 1 pg/mL
Table 25
  IFN-a mean: 16 pg/mL
  IFN-g mean: 8 pg/mL

## OCCOCCOCCO [Triethylene glycol]
Table 25, donor 28250
  IFN-a: 16 pg/mL
[2]
  IFN-g: 15 pg/mL
Table 25, donor 28251
  IFN-a: 16 pg/mL
  IFN-g: 1 pg/mL
Table 25, donor 28252
  IFN-a: 16 pg/mL
  IFN-g: 7 pg/mL
Table 25, donor 28253
  IFN-a: 16 pg/mL
  IFN-g: 1 pg/mL
Table 25
  IFN-a mean: 16 pg/mL
  IFN-g mean: 6 pg/mL
